Experimental findings from PubChem BioAssay (NCI) are described below.

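A five-concentration, 48-hour dose response in 96-well plates underlies each endpoint, interpolated linearly between surrounding concentrations. At the GI50, growth is halved. TGI denotes the concentration required for complete inhibition of growth.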

Among the test systems are BT-549 breast; HCC-2998 colon; HCT-116 colon; HT29 colon; LOX IMVI melanoma; NCI-H460 lung; OVCAR-3 ovarian; RXF 393 renal; SF-268 CNS; TK-10 renal.
Common to all, as to test: NCI tumour cell line growth inhibition, 48 h

For `C=C(C)[C@@H]1CC[C@]2(CN)CC[C@]3(C)[C@H](CC[C@@H]4[C@@]5(C)CCC(N)[C@@](C)(CO)[C@@H]5CC[C@]43C)[C@@H]12` (some centres not stated), the GI50 is 1.66 µM with BT-549 breast; 1.77 µM in the test with HCC-2998 colon; 1.61 µM in the test with HCT-116 colon; 1.59 µM with HT29 colon; 1.64 µM with LOX IMVI melanoma; 1.87 µM in the test with NCI-H460 lung. Moreover, the GI50 in the test on OVCAR-3 ovarian was 1.96 µM; in the test on RXF 393 renal, 1.28 µM; with SF-268 CNS it was 1.75 µM; in the test on TK-10 renal, 1.75 µM. For the same compound, the TGI in the test with BT-549 breast amounted to 3.2 µM; with HCC-2998 colon, 3.24 µM; in the test on HCT-116 colon it was 3.05 µM; in the test on HT29 colon it was 3.12 µM; in the test with LOX IMVI melanoma, 3.1 µM; in the test with NCI-H460 lung it was 3.51 µM. For the same compound, the TGI is 3.57 µM in the test with OVCAR-3 ovarian, 2.59 µM in the test on RXF 393 renal, 3.45 µM in the test with SF-268 CNS and 3.22 µM in the test on TK-10 renal.
In the case of `C[C@@H]1OC(=O)NN=C1c1ccc(-c2ccc(F)cc2)c(C(F)(F)F)c1`, the GI50 with BT-549 breast is 7.3 µM; in the test with HCC-2998 colon, 10.6 µM; in the test on HCT-116 colon it was 5.27 µM; in the test on HT29 colon, 10.3 µM; with LOX IMVI melanoma, 4.78 µM; in the test on NCI-H460 lung it was 11.7 µM. Further, the GI50 with OVCAR-3 ovarian was 6.01 µM; in the test with RXF 393 renal, 1.58 µM; in the test with SF-268 CNS, 1.03 µM; in the test on TK-10 renal, 1.65 µM. The TGI in the test with BT-549 breast came to 21.2 µM; in the test on HCC-2998 colon it was 23.1 µM; in the test with HCT-116 colon, 20.6 µM; in the test on HT29 colon it was 25.4 µM; in the test on LOX IMVI melanoma it was 18.8 µM; in the test with NCI-H460 lung, 25.6 µM. In addition, the TGI in the test on OVCAR-3 ovarian amounted to 20.3 µM; with RXF 393 renal, 7.62 µM; in the test with SF-268 CNS, 21.5 µM; in the test on TK-10 renal it was 19.6 µM.
Regarding `CCOC(=O)C(=O)C(/C(=N/N(C)C)C(=O)Nc1ccc(C)cc1C)c1nc2ccccc2[nH]c1=O` (configuration not stated), the TGI with BT-549 breast, in the test on HCC-2998 colon, with HCT-116 colon, with HT29 colon, with LOX IMVI melanoma and in the test on NCI-H460 lung was over 100 µM throughout. In addition, the TGI in the test with OVCAR-3 ovarian, in the test on RXF 393 renal, in the test with SF-268 CNS and in the test on TK-10 renal was over 100 µM throughout.
For the compound `O=C(Nc1ccc(-n2ccc3c(NC(=O)c4ccccc4)nccc32)cc1)c1ccc(N2CCOCC2)c(C(F)(F)F)c1`, the GI50 in the test with BT-549 breast was 4.73 µM; in the test with HCC-2998 colon, 0.6 µM; in the test with HCT-116 colon, 0.035 µM; with HT29 colon, 0.0476 µM; in the test with LOX IMVI melanoma it was 0.0334 µM; in the test on NCI-H460 lung, 0.0129 µM. For the same compound, the GI50 was 0.254 µM with OVCAR-3 ovarian, 0.194 µM in the test on RXF 393 renal, 0.122 µM in the test with SF-268 CNS and 0.449 µM in the test with TK-10 renal. Further, the TGI with BT-549 breast is over 67.9 µM; in the test on HCC-2998 colon, over 53 µM; with HCT-116 colon, 15.7 µM; in the test on HT29 colon it was 3.71 µM; in the test on LOX IMVI melanoma, 7.06 µM; with NCI-H460 lung, 1.35 µM. The TGI with OVCAR-3 ovarian was 9.89 µM; in the test with RXF 393 renal it was 1.48 µM; in the test with SF-268 CNS, over 77.1 µM; with TK-10 renal, 26.1 µM.
With `C[C@@]1(O)CCC[C@H]1n1c(=O)c(C(F)F)cc2cnc(NC3CCN(S(C)(=O)=O)CC3)nc21`, the GI50 in the test on BT-549 breast was 1.94 µM; with HCC-2998 colon it was 0.539 µM; in the test on HCT-116 colon, 1.05 µM; in the test on HT29 colon, 1.27 µM; in the test with LOX IMVI melanoma it was 1.28 µM; with NCI-H460 lung it was 0.109 µM. Moreover, the figures for the GI50 in the test on RXF 393 renal, in the test on SF-268 CNS and with TK-10 renal were 1.24 µM, 2.07 µM and 1.21 µM, respectively. Besides, the TGI in the test with BT-549 breast is 9.39 µM; in the test with HCC-2998 colon it was over 100 µM; with HCT-116 colon, over 100 µM; in the test with HT29 colon it was over 100 µM; with LOX IMVI melanoma it was over 100 µM; with NCI-H460 lung it was 11.9 µM. In addition, the TGI was 2.9 µM in the test with RXF 393 renal, 7.34 µM in the test on SF-268 CNS and over 100 µM with TK-10 renal.
With `CN[C@H]1CC[C@]23C[C@]24CC[C@]2(C)[C@@H]([C@H](C)N(C)C)CC[C@@]2(C)[C@@H]4CC[C@H]3C1(C)C`, the TGI with BT-549 breast was 31.9 µM; in the test on HCC-2998 colon, 28.7 µM; with HCT-116 colon it was 24 µM; in the test on HT29 colon, 14.2 µM; in the test on LOX IMVI melanoma, 18.9 µM; with NCI-H460 lung it was 37.2 µM. In addition, the TGI in the test with OVCAR-3 ovarian worked out at 33.6 µM; in the test on SF-268 CNS, 31.5 µM; with TK-10 renal it was 39.3 µM.
In the case of `CCN(CC)CCC(=O)N1C/C(=C/c2ccccc2)C(=O)/C(=C\c2ccccc2)C1`, the TGI in the test with BT-549 breast was found to be 1.81 µM; with HCC-2998 colon, 1.94 µM; in the test with HCT-116 colon, 1.02 µM; in the test on HT29 colon, 2.24 µM; with LOX IMVI melanoma, 0.949 µM; with NCI-H460 lung, 11.4 µM. The TGI in the test on OVCAR-3 ovarian came to 11 µM; in the test with RXF 393 renal, 2.99 µM; in the test on SF-268 CNS, 5.4 µM; in the test with TK-10 renal it was 18.4 µM.
With `CCN(CC)CCOc1ccc(Cc2ccccc2)cc1`, the GI50 in the test with BT-549 breast was 31.4 µM; with HCC-2998 colon, 38.7 µM; in the test on HCT-116 colon, 34.8 µM; with HT29 colon, 12.3 µM; with LOX IMVI melanoma, 15.2 µM; in the test on NCI-H460 lung, 22.9 µM. Further, the GI50 was 26.9 µM in the test on OVCAR-3 ovarian, 24.8 µM with RXF 393 renal, 35.3 µM in the test with SF-268 CNS and 23.3 µM in the test with TK-10 renal. The TGI with BT-549 breast is over 100 µM; in the test with HCC-2998 colon, over 100 µM; in the test with HCT-116 colon it was over 100 µM; with HT29 colon it was 33.9 µM; in the test on LOX IMVI melanoma, 33.3 µM; in the test on NCI-H460 lung, 62.1 µM. The TGI was over 100 µM with OVCAR-3 ovarian, 88.8 µM in the test on RXF 393 renal, over 100 µM with SF-268 CNS and 92.9 µM with TK-10 renal.
